A short description of this series: Pharmacokinetics of sinomenine in rat plasma after oral administration of sinomenine monomer and Sinomenium acutum extract. The conditions noted are these: male, Wistar.

In the case of `COC1=C[C@H]2[C@H]3Cc4ccc(OC)c(O)c4[C@@]2(CCN3C)CC1=O` [Sinomenine, 7,8-didehydro-4-hydroxy-3,7-dimethoxy-17-methylmorphinane-6-one], where the note is “30 mg/kg”, the AUC(0-inf) was 32800 ± 5370 ng·h/mL, the AUC(0-t) came to 29200 ± 4060 ng·h/mL, the CL/F was 15.6 mL/min/kg and the concentration peaked (Cmax) at 5240 ± 390 ng/mL. In addition, under “30 mg/kg”, the MRT inf worked out at 7.3 ± 0.889 h, the Tmax came to 1.08 ± 0.204 h and the half-life is 4.88 ± 0.635 h. For the same compound, for the setting “60 mg/kg”, the area under the curve AUC(0-inf) is 94000 ± 11200 ng·h/mL, the AUC(0-t) amounted to 78900 ± 5130 ng·h/mL, the CL/F was 10.8 mL/min/kg and the peak level (Cmax) was 11600 ± 942 ng/mL. In addition, for the setting “60 mg/kg”, the MRT inf was 8.8 ± 1.91 h, the Tmax was 1.5 ± 0.316 h and the half-life is 5.77 ± 1.59 h.

The values are drawn from paper PMC6271545, “Comparative Pharmacokinetics Study of Sinomenine in Rats after Oral Administration of Sinomenine Monomer and Sinomenium Acutum Extract” (Molecules, 2014).
